Tests used:
[1] = test system: TT cells; experiment: Effect of CPT-11-encapsulating liposomes in vivo, TT cell tumor-bearing mice (four mice per group)
Experimental: The following test was conducted to examine the in vivo effect of CPT-11-encapsulating Oct-modified liposomes. After transplanting 10^7 TT cells into mice (ICR nu/nu mice, 6-week-old, female, Oriental Yeast Co., Ltd.), tumors with tumor volumes of […] formed. To four mice in each group there were administered unmodified liposomes (CL) at 10 mg/kg body weight, as the CPT-11 amount, liposomes modified with 1.6 mol % Oct-PEG-DSPE (1.6Oct-CL), and liposomes modified with 1.6 mol % Oct-PEG-DSPE and 0.9% mol % PEG-DSPE (1.6Oct-SL). The administration was twice (1st and 4th days) through the caudal vein. As a control there was administered physiological saline and free CPT-11 (30 mg/kg), three times (1st, 4th and 7th days). The tumor size and body weight were periodically measured. […] The column headed “% ILS” in Table 3 contains the values calculated by the formula: [(mean survival days of treated group)−(mean survival days of control group)/(mean survival days of control group)]×100(%), with physiological saline as the control. The column headed “Median” in Table 3 contains the median values for survival time (days) for each group consisting of N animals.

[2] = test system: TT cells; experiment: Cytotoxicity test using CPT-11-encapsulating liposomes; format: cell-based; details: Homo sapiens
Experimental: TT cells were seeded into a 96-well plate at a density of 10^4 cells/well, and free CPT-11, 1.6Oct-CL or SL was added thereto at various concentrations prior to incubation for 48 hours, 72 hours and 96 hours. Next, after rinsing the cells with PBS, a coloring reagent (Cell Counting kit-8, Dojindo Laboratories) was added at 10 μL per well (100 μL), the absorbance at 450 nm was measured and IC50 (μM) was calculated.

[3] = test system: TT cells; experiment: Competitive inhibition test of intracellular uptake; format: cell-based, human; details: free Oct in 20-fold molar excess (84 nmol/ml), 37° C., 2 hours
Experimental: A competitive inhibition test was conducted to examine whether or not the intracellular uptake observed in Example 2 takes place via somatostatin receptor (SSTR).
The competitive inhibition is shown schematically in FIG. 2(A).

[4] = test system: TT cells; experiment: Cytotoxicity test using non-drug-encapsulating liposomes; format: cell-based, human; details: 0.042-8.4 μM Oct, 96 hours, no drug encapsulated
Experimental: Next, a cytotoxicity test was conducted using non-CPT-11-encapsulating liposomes, in order to evaluate the effect of the ligand (Oct) on cytotoxicity. […] After rinsing the cells with PBS, a coloring reagent was added and the absorbance at 450 nm was measured.
In FIG. 4, the four bars for each concentration are, from the left, the cell survival rates (%) for free Oct, Empty 1.6Oct-CL, Empty 4.4Oct-CL and Empty SL, respectively.

[5] = liposomes 10 mg/kg as CPT-11 twice, free CPT-11 30 mg/kg three times

Row | Compound | Survival time Median ([1]; liposomes 10 mg/kg as CPT-11, caudal vein, 1st and 4th days, free CPT-11 30 mg/kg, 1st, 4th and 7th days) | survival time and survival rate (life-lengthening effect) [1, 5] | tumor size [1, 5] | Survival time % ILS ([1]; physiological saline as control, liposomes 10 mg/kg as CPT-11 twice, free CPT-11 30 mg/kg three times) | IC50 ([2]; 48 hrs incubation) | IC50 ([2]; 72 hrs incubation) | IC50 ([2]; 96 hrs incubation) | effect of competitor on intracellular uptake of DXR-encapsulating 1.6Oct-CL [3] | cytotoxicity (cell survival rate) [4]
1 | CCc1c2c(nc3ccc(OC(=O)N4CCC(N5CCCCC5)CC4)cc13)-c1cc3c(c(=O)n1C2)COC(=O)[C@]3(O)CC [Free CPT-11, irinotecan] | 88 (4) days | no life-lengthening effect was observed | tumor size increased | 30.4% | 13.4 µM | 6.6 µM | 2.2 µM |  | 
2 | C[C@@H](O)[C@@H]1NC(=O)[C@H](CCCCN)NC(=O)[C@@H](Cc2c[nH]c3ccccc23)NC(=O)[C@H](Cc2ccccc2)NC(=O)[C@@H](NC(=O)[C@H](N)Cc2ccccc2)CSSC[C@@H](C(=O)N[C@H](CO)[C@@H](C)O)NC1=O [free Oct, octreotide] |  |  |  |  |  |  |  | did not affect | Cytotoxicity was observed
